Source: US20230348426A1, “OXOPYRROLIDINE FPR2 AGONISTS” (Bristol-Myers Squibb Company, priority 2020, published 2023)

Key:
[1] = target: human FPR2 (Homo sapiens (Human), UniProt P25090); assay: FPR2 cyclic adenosine monophosphate (cAMP) assay; assay type: cell-based; settings: CHO cells overexpressing human FPR2; forskolin 5 µM; inhibition of cAMP production; read-out: hFPR2 cAMP2 EC50
From the text: (§1) N-formyl peptide receptors (FPRs) are a family of chemo attractant receptors that facilitate leukocyte response during inflammation. FPRs belong to the seven-transmembrane G protein-coupled receptor superfamily and are linked to inhibitory G-proteins (Gi). Three family members (FPR1, FPR2 and FPR3) have been identified in humans and are predominantly found in myeloid cells with varied distribution and have also been reported in multiple organs and tissues. After agonist binding, the FPRs activate a multitude of physiological pathways, such as intra cellular signaling transduction, Ca^2+ mobilization and transcription. The family interacts with a diverse set of ligands that includes proteins, polypeptides and fatty acid metabolites which activate both pro-inflammatory and pro-resolution downstream responses. FPR2 and FPR1 Cyclic Adenosine Monophosphate (cAMP) Assays were used to measure the activity of the compounds in this patent.
(§2) FPR2 and FPR1 Cyclic Adenosine Monophosphate (cAMP) Assays. A mixture of forskolin (5 µM final for FPR2 or 10 µM final for FPR1) and IBMX (200 µM final) were added to 384-well Proxiplates (Perkin-Elmer) pre-dotted with test compounds in DMSO (1% final) at final concentrations in the range of 0.020 nM to 100 µM. Chinese Hamster Ovary cells (CHO) overexpressing human FPR1 or human FPR2 receptors were cultured in F-12 (Ham’s) medium supplemented with 10% qualified FBS, 250 µg/ml zeocin and 300 µg/ml hygromycin (Life Technologies). Reactions were initiated by adding 2,000 human FPR2 cells per well or 4,000 human FPR1 cells per well in Dulbecco’s PBS (with calcium and magnesium) (Life Technologies) supplemented with 0.1% BSA (Perkin-Elmer). The reaction mixtures were incubated for 30 min at room temperature. The level of intracellular cAMP was determined using the HTRF HiRange cAMP assay reagent kit (Cisbio) according to manufacturer’s instruction. Solutions of cryptate conjugated anti-cAMP and d2 flurorophore-labelled cAMP were made in a supplied lysis buffer separately. Upon completion of the reaction, the cells were lysed with equal volume of the d2-cAMP solution and anti-cAMP solution. After a 1-h room temperature incubation, time-resolved fluorescence intensity was measured using the Envision (Perkin-Elmer) at 400 nm excitation and dual emission at 590 nm and 665 nm. A calibration curve was constructed with an external cAMP standard at concentrations ranging from 1 µM to 0.1 pM by plotting the fluorescent intensity ratio from 665 nm emission to the intensity from the 590 nm emission against cAMP concentrations. The potency and activity of a compound to inhibit cAMP production was then determined by fitting to a 4-parametric logistic equation from a plot of cAMP level versus compound concentrations.

[2] = target: human FPR1 (Homo sapiens (Human), UniProt P21462); assay: FPR1 cyclic adenosine monophosphate (cAMP) assay; assay type: cell-based; settings: CHO cells overexpressing human FPR1; forskolin 10 µM; inhibition of cAMP production; read-out: hFPR1 cAMP EC50
Chain of human FPR1 (P21462 whole entry): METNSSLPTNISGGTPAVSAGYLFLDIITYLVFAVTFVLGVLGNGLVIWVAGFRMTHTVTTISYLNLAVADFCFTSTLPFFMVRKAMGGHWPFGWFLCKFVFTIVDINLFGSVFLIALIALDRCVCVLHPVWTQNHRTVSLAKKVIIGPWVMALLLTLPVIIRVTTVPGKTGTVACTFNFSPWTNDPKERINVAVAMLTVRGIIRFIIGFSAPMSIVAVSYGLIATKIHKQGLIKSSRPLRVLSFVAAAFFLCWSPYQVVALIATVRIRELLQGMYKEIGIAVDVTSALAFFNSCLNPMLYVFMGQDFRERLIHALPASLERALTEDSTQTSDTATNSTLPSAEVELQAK
From the text: as §1
as §2, with “After a 1-h room temperature incubation, time-resolved fluorescence intensity was measured using the Envision (Perkin-Elmer) at 400 nm excitation and dual emission at 590 nm and 665 nm. A calibration curve was constructed with an external cAMP standard at concentrations ranging from 1 µM to 0.1 pM by plotting the fluorescent intensity ratio from 665 nm emission to the intensity from the 590 nm emission against cAMP concentrations.” left out

Chain of human FPR2 (P25090 whole entry): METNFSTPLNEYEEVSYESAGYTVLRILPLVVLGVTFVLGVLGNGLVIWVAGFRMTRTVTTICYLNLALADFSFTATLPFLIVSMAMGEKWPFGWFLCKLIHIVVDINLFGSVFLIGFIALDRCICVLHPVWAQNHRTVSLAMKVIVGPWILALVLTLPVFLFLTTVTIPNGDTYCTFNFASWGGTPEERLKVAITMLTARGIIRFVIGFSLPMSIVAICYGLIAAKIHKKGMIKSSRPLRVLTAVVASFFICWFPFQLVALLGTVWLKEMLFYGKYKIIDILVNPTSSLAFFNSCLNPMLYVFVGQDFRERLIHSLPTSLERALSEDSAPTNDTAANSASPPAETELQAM

SMILES	EC50 [1]	EC50 [2]
COc1cc(F)c([C@H]2[C@H](NC(=O)c3ccc(Cl)cc3)C(=O)N(c3nccn(CC(F)F)c3=O)[C@@H]2C)c(F)c1 [Example 554]	4.3 nM	2400 nM
COc1cc(F)c([C@@H]2CN(c3c(C)ccn(C4CCN(C)C4)c3=O)C(=O)[C@H]2NC(=O)c2ccc(OC(F)F)cc2)c(F)c1 (stereo partly drawn) [Example 508]	6.4 nM	110 nM
COc1cc(F)c([C@@H]2CN(c3c(C)ccn(C4CCNC4)c3=O)C(=O)[C@H]2NC(=O)c2ccc(OC(F)F)cc2)c(F)c1 (stereo partly drawn) [Example 601]	2 nM	170 nM
COCC(CO)n1ccc(C)c(N2C[C@@H](c3c(F)cc(OC)cc3F)[C@H](NC(=O)c3ccc(OC(F)F)cc3)C2=O)c1=O (stereo partly drawn) [Example 426]	2.3 nM	4 nM
COc1cc(CO)nc(N2C[C@@H](c3c(F)cc(OC)cc3F)[C@H](NC(=O)c3ccc(OC(F)F)cc3)C2=O)c1 [Example 586]	9.8 nM	1300 nM
COc1cc(F)c([C@H]2[C@H](NC(=O)c3ccc(OC(F)F)cc3)C(=O)N(c3ncccc3OC(C)C)[C@H]2C)c(F)c1 [Example 126]	3.3 nM	2300 nM
COc1cc(F)c([C@@H]2CN(c3c(C)ccn(CC4CNC(=O)O4)c3=O)C(=O)[C@H]2NC(=O)c2ccc(OC(F)F)cc2)c(F)c1 (stereo partly drawn) [Example 619]	9.4 nM	64 nM
COc1cc(F)c([C@@H]2CN(c3cccn(CC(O)C(F)(F)F)c3=O)C(=O)[C@H]2NC(=O)c2ccc(OC(F)F)cc2)c(F)c1 (single isomer, unassigned) [Example 5]	2.9 nM	14 nM
COc1cc(F)c([C@@H]2CN(c3c(C)ccn(CC#N)c3=O)C(=O)[C@H]2NC(=O)c2ccc(OC(F)(F)F)cc2)c(F)c1 [Example 595]	2.4 nM	13 nM
COc1ccc([C@@H]2CN(c3cccn(CCO)c3=O)C(=O)[C@H]2NC(=O)c2ccc(OC(F)F)cc2)c(F)c1 [Example 143]	3.6 nM	53 nM
COc1cc(F)c([C@@H]2CN(c3c(C)ccn(CC(O)C(F)(F)F)c3=O)C(=O)[C@H]2NC(=O)c2ccc(OC(F)F)cc2)c(F)c1 (stereo partly drawn) [Example 634]	2 nM	2.3 nM
COc1cc(F)c([C@@H]2CN(c3nccc(N4CCN(C)CC4)c3C(F)(F)F)C(=O)[C@H]2NC(=O)c2ccc(OC(F)F)cc2)c(F)c1 [Example 279]	8.1 nM	5800 nM
COc1cc(F)c([C@@H]2CN(c3c(C)ccn(CC4CCO4)c3=O)C(=O)[C@H]2NC(=O)c2ccc(Cl)cc2)c(F)c1 (stereo partly drawn) [Example 618]	1 nM	9.5 nM
CCn1cccc(N2C(=O)[C@@H](NC(=O)c3ccc(OC(F)F)cc3)[C@H](c3c(F)cc(OC)cc3F)[C@@H]2C)c1=O [Example 80]	2.1 nM	130 nM
COc1cc(F)c([C@@H]2CN(c3ccc(F)c(N4C[C@@H]5C[C@H]4CN5C)n3)C(=O)[C@H]2NC(=O)c2ccc(OC(F)F)cc2)c(F)c1 [Example 569]	1.2 nM	1600 nM
COc1cc(F)c([C@@H]2CN(c3c(C)ccn(CC(O)C4CC4)c3=O)C(=O)[C@H]2NC(=O)c2ccc(OC(F)(F)F)cc2)c(F)c1 (stereo partly drawn) [Example 686]		0.7 nM
COc1cc(F)c([C@@H]2CN(c3c(C)ccn(CC(O)C4CC4)c3=O)C(=O)[C@H]2NC(=O)c2ccc(OC(F)(F)F)cc2)c(F)c1 (stereo partly drawn) [Example 683]	13 nM	
COc1cc(F)c([C@@H]2CN(c3c(C)ccn(CC(C)O)c3=O)C(=O)[C@H]2NC(=O)c2ccc(OC(F)(F)F)cc2)c(F)c1 (stereo partly drawn) [Example 400]	2.9 nM	
COc1ccc([C@@H]2CN(c3ccnn(CCC(F)(F)F)c3=O)C(=O)[C@H]2NC(=O)c2ccc(Cl)cc2)cc1 [Example 671]	5.8 nM	

More lines, now with the values ahead:

EC50 [1]	EC50 [2]	SMILES
5.3 nM	18 nM	COc1cc(F)c([C@@H]2CN(c3cccn(C4CCOC4)c3=O)C(=O)[C@H]2NC(=O)c2ccc(OC(F)F)cc2)c(F)c1 (stereo partly drawn) [Example 201]
2.1 nM	650 nM	COc1cc(F)c([C@@H]2CN(c3cccc(C4CCN(C)CC4)n3)C(=O)[C@H]2NC(=O)c2ccc(OC(F)F)cc2)c(F)c1 [Example 536]
1.4 nM	2.3 nM	COCCn1cccc(N2C[C@@H](c3ccc(OC)cc3F)[C@H](NC(=O)c3ccc(OC(F)(F)F)cc3)C2=O)c1=O [Example 53]
7.2 nM	11 nM	COCCn1nccc(N2C[C@@H](c3c(F)cc(OC)cc3F)[C@H](NC(=O)c3ccc(OC(F)F)cc3)C2=O)c1=O [Example 398]
16 nM	670 nM	COc1cc(F)c([C@@H]2CN(c3c4c(cn(CCO)c3=O)CCCC4)C(=O)[C@H]2NC(=O)c2ccc(OC(F)F)cc2)c(F)c1 [Example 646]
4.9 nM	1300 nM	CCn1cnc(C)c(N2C[C@@H](c3c(F)cc(OC)cc3F)[C@H](NC(=O)c3ccc(Cl)cc3)C2=O)c1=O [Example 520]
10 nM	9.6 nM	COCC(CO)n1cccc(N2C[C@@H](c3ccc(OC)cc3)[C@H](NC(=O)c3ccc(OC(F)F)cc3)C2=O)c1=O (stereo partly drawn) [Example 315]
1.2 nM	110 nM	COc1cc(F)c([C@@H]2CN(c3ccn(CC(F)F)n3)C(=O)[C@H]2NC(=O)c2ccc(OC(F)F)cc2)c(F)c1 [Example 661]
100 nM	3400 nM	COc1cc(F)c([C@H]2[C@H](NC(=O)c3ccc(OC(F)F)cc3)C(=O)N(c3cccc(P(C)(C)=O)n3)[C@H]2C)c(F)c1 [Example 505]
4.5 nM	6 nM	COc1cc(F)c([C@@H]2CN(c3c(C)ccn(CC(C)O)c3=O)C(=O)[C@H]2NC(=O)c2ccc(OC(F)(F)F)cc2)c(F)c1 (stereo partly drawn) [Example 359]
4.6 nM	15 nM	COc1cc(F)c([C@@H]2CN(c3nc(N(C)C(C)=O)ccc3F)C(=O)[C@H]2NC(=O)c2ccc(OC(F)F)cc2)c(F)c1 [Example 177]
2.7 nM	46 nM	COc1cc(F)c([C@@H]2CN(c3cccn(CC4CC(F)(F)C4)c3=O)C(=O)[C@H]2NC(=O)c2ccc(OC(F)F)cc2)c(F)c1 [Example 96]
7.8 nM	170 nM	COc1cc(F)c([C@@H]2CN(c3c(C)ccn(C(F)(F)C(=O)N4CCOCC4)c3=O)C(=O)[C@H]2NC(=O)c2ccc(OC(F)F)cc2)c(F)c1 [Example 600]
7.5 nM	940 nM	CNc1ccnc(N2C[C@@H](c3c(F)cc(OC)cc3F)[C@H](NC(=O)c3ccc(OC(F)F)cc3)C2=O)c1C(F)(F)F [Example 261]
1.5 nM	3.5 nM	COc1cc(F)c([C@@H]2CN(c3nc(N4CCOCC4=O)ccc3F)C(=O)[C@H]2NC(=O)c2ccc(OC(F)(F)F)cc2)c(F)c1 [Example 58]
4 nM	900 nM	COc1cc(F)c([C@@H]2CN(c3c(C)ncn(CC(F)F)c3=O)C(=O)[C@H]2NC(=O)c2ccc(Cl)cc2)c(F)c1 [Example 533]
3.5 nM	780 nM	COCCn1ccnc1N1C[C@@H](c2c(F)cc(OC)cc2F)[C@H](NC(=O)c2ccc(OC(F)F)cc2)C1=O [Example 651]
1.5 nM		COCC(CO)n1ccc(C)c(N2C[C@@H](c3c(F)cc(OC)cc3F)[C@H](NC(=O)c3ccc(OC(F)(F)F)cc3)C2=O)c1=O (stereo partly drawn) [Example 429]
